In US9777008B2, “PRMT5 inhibitors and uses thereof” (Epizyme, Inc., priority 2012, dated 2017):

Assays:
[1] = system: symmetric di-methyl arginine in Z-138 cells; assay: Z-138 Methylation Assay (In Cell Western for symmetric di-methyl arginine and DNA content); assay type: cell-based; settings: Homo sapiens, read-out: ICW EC50
Text: [formula] [formula] Where top and bottom are the normally allowed to float, but may be fixed at 100 or 0 respectively in a 3-parameter fit. The Hill Coefficient normally allowed to float but may also be fixed at 1 in a 3-parameter fit. Y is the % inhibition and X is the compound concentration. Z-138 Methylation Assay
Z-138 suspension cells were purchased from ATCC (American Type Culture Collection, Manassas, Va.). RPMI/Glutamax medium, penicillin-streptomycin, heat inactivated fetal bovine serum, and D-PBS were purchased from Life Technologies, Grand Island, N.Y., USA. Odyssey blocking buffer, 800CW goat anti-rabbit IgG (H+L) antibody, and Licor Odyssey infrared scanner were purchased from Licor Biosciences, Lincoln, Nebr., USA. Symmetric di-methyl arginine antibody was purchased from EMD Millipore, Billerica, Mass., USA. 16% Paraformaldehyde was purchased from Electron Microscopy Sciences, Hatfield, Pa., USA. Z-138 suspension cells were maintained in growth medium (RPMI 1640 supplemented with 10% v/v heat inactivated fetal bovine serum and 100 units/mL penicillin-streptomycin) and cultured at 37° C. under 5% CO2.
Cell Treatment, in Cell Western (ICW) for Detection of Symmetric Di-Methyl Arginine and DNA Content.
Z-138 cells were seeded in assay medium at a concentration of 50,000 cells per mL to a 384-well cell culture plate with 50 μL per well. Compound (100 nL) from 384 well source plates was added directly to 384 well cell plate. Plates were incubated at 37° C., 5% CO2 for 96 hours. […]
First, the ratio for each well was determined by:
Each plate included fourteen control wells of DMSO only treatment (minimum inhibition) as well as fourteen control wells for maximum inhibition treated with 3 μM of a reference compound (Background wells). The average of the ratio values for each control type was calculated and used to determine the percent inhibition for each test well in the plate. […] Percent inhibition was determined and IC50 curves were generated using triplicate wells per concentration of compound. […]

PRMT5/MEP50 = PRMT5/MEP50 (Homo sapiens (Human), UniProt O14744); assay: PRMT5 Biochemical Assay (PRMT5/MEP50 enzyme assay on peptide substrate, 3H-SAM Flashplate)
Text: S-adenosylmethionine (SAM), S-adenosylhomocysteine (SAH), bicine, KCl, Tween20, dimethylsulfoxide (DMSO), bovine skin gelatin (BSG), and Tris(2-carboxyethyl)phosphine hydrochloride solution (TCEP) were purchased from Sigma-Aldrich at the highest level of purity possible. ^3H-SAM was purchase from American Radiolabeled Chemicals with a specific activity of 80 Ci/mmol. 384-well streptavidin Flashplates were purchased from PerkinElmer.
Peptide representative of human histone H4 residues 1-15 was synthesized with a C-terminal linker-affinity tag motif and a C-terminal amide cap by 21st Century Biochemicals. The peptide was high high-performance liquid chromatography (HPLC) purified to greater than 95% purity and confirmed by liquid chromatography mass spectrometry (LC-MS). The sequence was Ac-[…][K-Biot]-amide (SEQ ID NO.:3).
Molecular Biology: Full-length human PRMT5 (NM_006109.3) transcript variant 1 clone was amplified from a fetal brain cDNA library, incorporating flanking 5′ sequence encoding a FLAG tag ([…]) (SEQ ID NO.:4) fused directly to Ala 2 of PRMT5. Full-length human MEP50 (NM_024102) clone was amplified from a human testis cDNA library incorporating a 5′ sequence encoding a 6-histidine tag (MHHHHHH) (SEQ ID NO.:5) fused directly to Arg 2 of MEP50. The amplified genes were sublconed into pENTR/D/TEV (Life Technologies) and subsequently transferred by Gateway™ attL×attR recombination to pDEST8 baculvirus expression vector (Life Technologies).
Recombinant baculovirus and Baculovirus-Infected Insect Cells (BIIC) were generated according to Bac-to-Bac kit instructions (Life Technologies) and Wasilko, 2006, respectively. Protein over-expression was accomplished by infecting exponentially growing Spodoptera frugiperda (SF9) cell culture at 1.2×10^6 cell/ml with a 5000 fold dilution of BIIC stock. Infections were carried out at 27° C. for 72 hours, harvested by centrifugation, and stored at −80° C. for purification.
Flag-PRMT5/6His-MeP50 was eluted with 300 mM Imidazole in the same buffer. The purity of recovered protein was 87%. Reference: Wasilko, D. J. and S. E. Lee: “TIPS: titerless infected-cells preservation and scale-up” Bioprocess J., 5 (2006), pp. 29-32.
General Procedure for PRMT5/MEP50 Enzyme Assays on Peptide Substrates.
The assays were all performed in a buffer consisting of 20 mM Bicine (pH=7.6), 1 mM TCEP, 0.005% BSG, and 0.002% Tween20, prepared on the day of use. Compounds in 100% DMSO (1 ul) were spotted into a polypropylene 384-well V-bottom plates (Greiner) using a Platemate Plus outfitted with a 384-channel head (Thermo Scientific). DMSO (1 ul) was added to Columns 11, 12, 23, 24, rows A-H for the maximum signal control and 1 ul of SAH, a known product and inhibitor of PRMT5/MEP50, was added to columns 11, 12, 23, 24, rows I-P for the minimum signal control. A cocktail (40 ul) containing the PRMT5/MEP50 enzyme and the peptide was added by Multidrop Combi (Thermo-Fisher). The compounds were allowed to incubate with PRMT5/MEP50 for 30 min at 25 degrees Celsius, then a cocktail (10 ul) containing ^3H-SAM was added to initiate the reaction (final volume=51 ul). The final concentrations of the components were as follows: PRMT5/MEP50 was 4 nM, ^3H-SAM was 75 nM, peptide was 40 nM, SAH in the minimum signal control wells was 100 uM, and the DMSO concentration was 1%. The assays were stopped by the addition of non-radioactive SAM (10 ul) to a final concentration of 600 uM, which dilutes the ^3H-SAM to a level where its incorporation into the peptide substrate is no longer detectable. 50 ul of the reaction in the 384-well polypropylene plate was then transferred to a 384-well Flashplate and the biotinylated peptides were allowed to bind to the streptavidin surface for at least 1 hour before being washed three times with 0.1% Tween20 in a Biotek ELx405 plate washer. […]

PRMT5/MEP50, sequence (O14744 other isoform, or with tags, fused parts or gaps): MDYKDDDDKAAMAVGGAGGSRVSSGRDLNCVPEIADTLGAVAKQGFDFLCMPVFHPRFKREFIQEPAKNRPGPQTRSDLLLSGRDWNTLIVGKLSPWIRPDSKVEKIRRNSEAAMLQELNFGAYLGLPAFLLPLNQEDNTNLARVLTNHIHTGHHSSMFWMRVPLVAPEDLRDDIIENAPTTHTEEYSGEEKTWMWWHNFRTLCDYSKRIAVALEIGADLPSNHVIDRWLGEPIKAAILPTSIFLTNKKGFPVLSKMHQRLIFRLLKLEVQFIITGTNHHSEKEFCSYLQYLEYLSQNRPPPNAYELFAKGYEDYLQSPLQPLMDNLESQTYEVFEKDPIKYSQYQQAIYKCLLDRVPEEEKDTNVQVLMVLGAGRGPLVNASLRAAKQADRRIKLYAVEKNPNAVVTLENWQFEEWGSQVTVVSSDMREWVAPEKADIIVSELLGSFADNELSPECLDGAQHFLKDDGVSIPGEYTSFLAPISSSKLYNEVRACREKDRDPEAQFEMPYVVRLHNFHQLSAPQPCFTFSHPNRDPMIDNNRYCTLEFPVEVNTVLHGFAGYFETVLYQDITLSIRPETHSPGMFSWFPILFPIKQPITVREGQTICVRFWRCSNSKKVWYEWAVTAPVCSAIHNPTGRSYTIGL
PRMT5/MEP50, sequence (Q9BQA1 other isoform, or with tags, fused parts or gaps partner): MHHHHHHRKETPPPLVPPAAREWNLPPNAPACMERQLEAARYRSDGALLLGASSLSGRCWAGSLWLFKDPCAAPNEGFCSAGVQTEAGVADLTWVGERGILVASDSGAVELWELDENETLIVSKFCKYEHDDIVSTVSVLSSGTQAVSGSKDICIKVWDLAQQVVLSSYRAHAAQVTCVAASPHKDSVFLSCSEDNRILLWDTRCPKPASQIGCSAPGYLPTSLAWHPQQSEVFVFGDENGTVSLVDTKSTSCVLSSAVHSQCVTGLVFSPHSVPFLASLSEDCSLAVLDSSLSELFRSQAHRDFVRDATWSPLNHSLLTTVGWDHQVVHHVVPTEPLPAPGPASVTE

Question: `O=C(Nc1cccc(OCC(O)CN2CCc3ccccc3C2)c1)c1cccnc1` (centres unmarked) [Compound 163] was tested. Which EC50 [1] did it give?
Answer: 1 to 10 µM

Question: And the IC50 (PRMT5/MEP50)?
Answer: 1 to 10 µM
